Consider 16 molecules from patent publication US10457655B2, “Compounds and compositions for inhibition of FASN” (FORMA Therapeutics, Inc., priority 2013, dated 2019).

Each structure is given as a SMILES string. Bounds are passed on as bounds.

FASN enzyme, sequence (P49327 whole entry): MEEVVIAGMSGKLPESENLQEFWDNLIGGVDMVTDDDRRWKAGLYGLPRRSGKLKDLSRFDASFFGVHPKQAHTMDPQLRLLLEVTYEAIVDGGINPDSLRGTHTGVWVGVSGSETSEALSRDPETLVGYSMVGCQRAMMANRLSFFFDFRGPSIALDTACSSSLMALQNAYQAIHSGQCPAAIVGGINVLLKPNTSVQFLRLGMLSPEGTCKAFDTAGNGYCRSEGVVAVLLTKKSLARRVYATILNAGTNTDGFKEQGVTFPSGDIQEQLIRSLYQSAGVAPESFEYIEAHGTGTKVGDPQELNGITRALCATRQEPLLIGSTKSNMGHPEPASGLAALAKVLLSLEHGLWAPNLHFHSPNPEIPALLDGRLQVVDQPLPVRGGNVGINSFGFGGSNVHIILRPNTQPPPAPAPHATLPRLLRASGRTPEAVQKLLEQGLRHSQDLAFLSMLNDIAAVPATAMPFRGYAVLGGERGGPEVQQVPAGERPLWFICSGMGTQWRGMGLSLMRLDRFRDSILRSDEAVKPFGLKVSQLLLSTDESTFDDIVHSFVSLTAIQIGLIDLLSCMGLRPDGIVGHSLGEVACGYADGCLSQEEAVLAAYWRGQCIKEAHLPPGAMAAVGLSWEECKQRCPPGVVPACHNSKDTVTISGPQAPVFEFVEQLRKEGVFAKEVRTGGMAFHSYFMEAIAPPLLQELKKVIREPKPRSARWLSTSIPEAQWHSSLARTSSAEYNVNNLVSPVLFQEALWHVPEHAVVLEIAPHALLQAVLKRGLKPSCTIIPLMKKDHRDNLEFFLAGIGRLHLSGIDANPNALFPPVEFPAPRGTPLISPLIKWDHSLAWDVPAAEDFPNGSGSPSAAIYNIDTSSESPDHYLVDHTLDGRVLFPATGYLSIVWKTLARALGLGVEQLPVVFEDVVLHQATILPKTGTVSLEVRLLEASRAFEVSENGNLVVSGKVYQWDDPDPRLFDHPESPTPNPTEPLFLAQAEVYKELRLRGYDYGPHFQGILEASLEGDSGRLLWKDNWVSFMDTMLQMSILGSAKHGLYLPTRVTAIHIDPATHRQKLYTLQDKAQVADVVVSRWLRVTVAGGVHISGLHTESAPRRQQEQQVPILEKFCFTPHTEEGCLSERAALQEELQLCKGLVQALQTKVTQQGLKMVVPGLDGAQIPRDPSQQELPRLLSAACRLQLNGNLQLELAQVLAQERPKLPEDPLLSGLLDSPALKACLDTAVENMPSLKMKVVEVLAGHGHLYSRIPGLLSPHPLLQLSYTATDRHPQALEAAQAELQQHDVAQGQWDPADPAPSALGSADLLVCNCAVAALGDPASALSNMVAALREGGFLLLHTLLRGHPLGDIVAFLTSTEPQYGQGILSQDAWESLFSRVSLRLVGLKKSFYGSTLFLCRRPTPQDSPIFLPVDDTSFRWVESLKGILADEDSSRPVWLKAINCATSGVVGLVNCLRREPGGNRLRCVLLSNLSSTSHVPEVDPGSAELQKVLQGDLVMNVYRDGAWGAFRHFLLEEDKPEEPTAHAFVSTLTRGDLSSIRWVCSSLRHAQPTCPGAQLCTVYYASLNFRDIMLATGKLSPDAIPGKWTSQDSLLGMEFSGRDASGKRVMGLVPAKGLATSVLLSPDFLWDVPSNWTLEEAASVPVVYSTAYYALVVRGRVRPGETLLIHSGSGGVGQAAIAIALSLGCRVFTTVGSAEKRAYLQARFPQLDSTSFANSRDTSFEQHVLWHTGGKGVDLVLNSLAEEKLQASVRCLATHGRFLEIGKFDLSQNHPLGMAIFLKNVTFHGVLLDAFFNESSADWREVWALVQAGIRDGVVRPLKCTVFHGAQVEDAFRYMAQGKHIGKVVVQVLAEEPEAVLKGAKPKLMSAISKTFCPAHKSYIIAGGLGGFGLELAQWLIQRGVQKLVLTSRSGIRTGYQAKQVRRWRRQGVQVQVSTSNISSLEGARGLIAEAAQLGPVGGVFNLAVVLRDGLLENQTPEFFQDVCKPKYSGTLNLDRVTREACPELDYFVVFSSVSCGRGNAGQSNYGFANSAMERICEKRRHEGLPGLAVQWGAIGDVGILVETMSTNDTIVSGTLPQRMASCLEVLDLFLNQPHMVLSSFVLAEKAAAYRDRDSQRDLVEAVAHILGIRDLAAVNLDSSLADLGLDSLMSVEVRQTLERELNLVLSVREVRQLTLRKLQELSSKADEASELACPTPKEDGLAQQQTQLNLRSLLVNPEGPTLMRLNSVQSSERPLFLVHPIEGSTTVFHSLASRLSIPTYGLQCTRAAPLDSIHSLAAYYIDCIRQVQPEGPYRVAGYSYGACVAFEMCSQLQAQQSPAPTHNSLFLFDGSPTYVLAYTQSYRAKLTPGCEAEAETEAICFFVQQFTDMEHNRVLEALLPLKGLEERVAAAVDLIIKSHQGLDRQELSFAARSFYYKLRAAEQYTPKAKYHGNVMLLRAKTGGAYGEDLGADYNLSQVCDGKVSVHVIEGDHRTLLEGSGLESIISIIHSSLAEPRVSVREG

This assay deals with FASN enzyme (Homo sapiens, UniProt P49327). Kind of assay: Enzymatic Assay for FASN Inhibitors. Type of assay: biochemical. The essentials:
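40 nM FASN preincubated with compound 60 min at 25° C in HEPES pH 7.3 buffer with 0.04% Triton X-100. Then 20 μM acetyl-CoA, 60 μM malonyl-CoA and 100 μM NADPH added for 90 min, quenched with CPM thiol probe; fluorescence 360/530 nm, IC50 by four-parameter fit.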
In turn, `O=C(c1ccc(-c2cccc3[nH]cnc23)cc1Cl)N1CCN(C(=O)C2(O)CC2)CC1` [1-{4-[4-(1H-1,3-benzodiazol-4-yl)-2-chlorobenzoyl]piperazine-1-carbonyl}cyclopropan-1-ol] registered a half-maximal inhibitory concentration (IC50) of less than 500 nM.

`O=C(c1ccc(-n2ncc3ccccc32)cc1)N1CCN(C(=O)C2(O)CC2)CC1` [1-{4-[4-(1H-indazol-1-yl)benzoyl]piperazine-1-carbonyl}cyclopropan-1-ol] gave an IC50 of less than 500 nM. To `O=C(c1ccc(-n2ccc3ccccc32)cc1)N1CCN(C(=O)C2(O)CC2)CC1` [1-{4-[4-(1H-indol-1-yl)benzoyl]piperazine-1-carbonyl}cyclopropan-1-ol] belongs less than 500 nM; to `O=C(c1ccc(N2CCCc3ccccc3C2)cc1)N1CCN(C(=O)C2(O)CC2)CC1` [1-{4-[4-(2,3,4,5-tetrahydro-1H-2-benzazepin-2-yl)benzoyl]piperazine-1-carbonyl}cyclopropan-1-ol], less than 500 nM; to `O=C(c1ccc(N2CCc3ccccc3CC2)cc1)N1CCN(C(=O)C2(O)CC2)CC1` [1-{4-[4-(2,3,4,5-tetrahydro-1H-3-benzazepin-3-yl)benzoyl]piperazine-1-carbonyl}cyclopropan-1-ol], less than 500 nM. To `O=C(c1ccc(N2CCc3ccccc32)cc1)N1CCN(C(=O)C2(O)CC2)CC1` [1-{4-[4-(2,3-dihydro-1H-indol-1-yl)benzoyl]piperazine-1-carbonyl}cyclopropan-1-ol] belongs less than 500 nM; to `O=C(c1ccc(N2Cc3ccccc3C2)cc1)N1CCN(C(=O)C2(O)CC2)CC1` [1-{4-[4-(2,3-dihydro-1H-isoindol-2-yl)benzoyl]piperazine-1-carbonyl}cyclopropan-1-ol], less than 500 nM; to `O=C(c1ccc(-c2ccc3nn(C4CC4)cc3c2)cc1)N1CCN(C(=O)C2(O)CC2)CC1` [1-{4-[4-(2-cyclopropyl-2H-indazol-5-yl)benzoyl]piperazine-1-carbonyl}cyclopropan-1-ol], less than 500 nM. With `Cc1nc2ccccc2n1-c1ccc(C(=O)N2CCN(C(=O)C3(O)CC3)CC2)cc1` [1-{4-[4-(2-methyl-1H-1,3-benzodiazol-1-yl)benzoyl]piperazine-1-carbonyl}cyclopropan-1-ol] the figure was less than 500 nM; with `Cc1nc2cc(-c3ccc(C(=O)N4CCN(C(=O)C5(O)CC5)CC4)cc3)ccc2[nH]1` [1-{4-[4-(2-methyl-1H-1,3-benzodiazol-5-yl)benzoyl]piperazine-1-carbonyl}cyclopropan-1-ol], less than 500 nM; with `Cc1[nH]c2ccccc2c1-c1ccc(C(=O)N2CCN(C(=O)C3(O)CC3)CC2)cc1` [1-{4-[4-(2-methyl-1H-indol-3-yl)benzoyl]piperazine-1-carbonyl}cyclopropan-1-ol], less than 500 nM.

`CC1Cc2ccccc2N1c1ccc(C(=O)N2CCN(C(=O)C3(O)CC3)CC2)cc1` (stereo not shown) [1-{4-[4-(2-methyl-2,3-dihydro-1H-indol-1-yl)benzoyl]piperazine-1-carbonyl}cyclopropan-1-ol] registered an IC50 of less than 500 nM. With `Nc1noc2ccc(-c3ccc(C(=O)N4CCN(C(=O)C5(O)CC5)CC4)cc3)cc12` [1-{4-[4-(3-amino-1,2-benzoxazol-5-yl)benzoyl]piperazine-1-carbonyl}cyclopropan-1-ol] the figure was less than 500 nM. To `Nc1noc2cc(-c3ccc(C(=O)N4CCN(C(=O)C5(O)CC5)CC4)cc3)ccc12` [1-{4-[4-(3-amino-1,2-benzoxazol-6-yl)benzoyl]piperazine-1-carbonyl}cyclopropan-1-ol] belongs less than 500 nM; to `Nc1n[nH]c2ccc(-c3ccc(C(=O)N4CCN(C(=O)C5(O)CC5)CC4)cc3)cc12` [1-{4-[4-(3-amino-1H-indazol-5-yl)benzoyl]piperazine-1-carbonyl}cyclopropan-1-ol], less than 500 nM. Molecule `Nc1n[nH]c2cc(-c3ccc(C(=O)N4CCN(C(=O)C5(O)CC5)CC4)cc3)ccc12` [1-{4-[4-(3-amino-1H-indazol-6-yl)benzoyl]piperazine-1-carbonyl}cyclopropan-1-ol] displayed an IC50 of less than 500 nM.
